Data as given in PMC9027957, “Interspecies Comparisons of the Effects of Potential Antiviral 3-Amidinophenylalanine Derivatives on Cytochrome P450 1A2 Isoenzyme” (Veterinary Sciences, 2022).
Like-named read-outs stand apart in the source and are kept apart here.

How the values were obtained:
CYP1A2 [1] = biological target: T1, CYP1A2 (Canis lupus familiaris, UniProt P56592); assay type: cell-based; details: dog, 2 h
T1 construct: endogenous in cells; host or cells: beagle hepatocytes
T1 sequence (P56592 1-512): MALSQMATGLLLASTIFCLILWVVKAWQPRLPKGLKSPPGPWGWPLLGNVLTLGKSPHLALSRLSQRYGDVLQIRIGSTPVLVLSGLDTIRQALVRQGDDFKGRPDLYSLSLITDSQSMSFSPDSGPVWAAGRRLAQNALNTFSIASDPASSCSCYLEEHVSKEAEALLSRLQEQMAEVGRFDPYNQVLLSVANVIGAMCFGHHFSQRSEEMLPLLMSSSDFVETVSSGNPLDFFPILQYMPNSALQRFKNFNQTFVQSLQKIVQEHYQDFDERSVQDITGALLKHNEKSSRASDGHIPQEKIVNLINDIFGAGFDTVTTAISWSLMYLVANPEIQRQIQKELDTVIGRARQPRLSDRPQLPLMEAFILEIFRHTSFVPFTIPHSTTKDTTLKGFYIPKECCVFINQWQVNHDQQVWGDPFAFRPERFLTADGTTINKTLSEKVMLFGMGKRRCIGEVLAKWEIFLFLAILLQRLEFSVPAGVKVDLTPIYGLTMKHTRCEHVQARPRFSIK
Method: For the measurements of CYP1A2 activities, hepatocytes were grown on 24-well collagen-coated membrane inserts (Costar Transwell-PTFE membrane, 6.5 mm, pore size: 0.4 µm, Merck, Darmstadt, Germany). […] The determination of the CYP1A2 activities were performed using the P450-Glo CYP450 Assay (Promega, Madison, WI, USA) according to the manufacturer’s instructions.

CYP1A2 [2] = biological target: T1, CYP1A2; assay: CYP1A2 fluorometric activity assay in beagle hepatic microsomes; assay type: in vitro ADME; details: beagle, dog, 15 min, 50 µM
Method: The Biovision CYP assay (BioVision, Inc., Kampenhout, Belgium) utilizes a non-fluorescent CYP1A2 substrate capable of transforming into a highly fluorescent metabolite, which can be detected in the visible range. α-naphthoflavone was used as a CYP1A2 reference inhibitor at 6 µM during the experiments. Rat (Sprague–Dawley) and beagle (Gibco, Biocenter, Szeged, Hungary, protein concentration: 20 mg/mL) hepatic microsomal preparations were prepared separately by mixing 25 µL of the obtained rat or beagle microsomal suspension with 2425 µL assay buffer and with 50 µL NADPH generating system (100×). In the case of the cynomolgus monkey microsomal suspension (Primacyt, Schwerin, Germany, protein concentration: 5 mg/mL), the following volumes were applied: in addition to 100 µL of monkey microsomal suspension, the amount of assay buffer and the NADPH generating system were adjusted in order to ensure the original ratios of these components to reach a final volume of 2500 µL. Rat, beagle, and cynomolgus monkey microsomal suspension aliquots (50 µL) were treated with the protease inhibitor 20 µL, 0–1000 µM), the reference compound α-naphthoflavone (20 µL, 30 µM), or the assay buffer without test compounds (20 µL, background control) for 15 min at 37 °C. After incubation, 30 µL of the appropriate CYP1A2 substrate/NADP+ mixture was added to each well, yielding a final reaction volume of 100 µL/well. The protein contents of the obtained microsomes were analysed using bicinchoninic acid protein assay kit (Pierce BCA kit, Thermo Fisher Scientific, Waltham, MA, USA). […] The fluorescence intensities were measured with a fluorometer (Victor X2 2030, Perkin Elmer, Waltham, MA, USA), using λEx/Em = 406/468 nm.

beagle hepatocytes = assay: MTS cytotoxicity assay in beagle primary hepatocytes; assay type: cell-based; details: 50 μM and 100 μM, 24 h
Method: Rat, beagle, and cynomolgus monkey cryopreserved primary hepatocytes were obtained from Primacyt Cell Culture Company (Schwerin, Germany). The thawing, plating, and maintenance media were purchased from Lonza Group Ltd. (Biocenter Ltd., Szeged, Hungary). Influence of inhibitors MI-432 and MI-1900 on the viability of primary […] hepatocytes was tested. Hepatocytes, grown on a 96-well plate for 24 h, were incubated with the inhibitors at 0, 50, and at 100 µM for 24 h in treated groups. The control cells were incubated only with cell maintenance medium. After removal of the medium and three-fold washing of the cells with phosphate-buffered saline (PBS), 20 μL aliquots of CellTiter 96 AQueous one solution (MTS, Promega, Bioscience, Budapest, Hungary) were pipetted into a 96-well plate, each containing 100 μL of phenol red free medium. The plate was incubated with dye for 2 h. Viability of hepatocytes was measured at 490 nm using an EZ Read Biochrom 400 microplate reader.

SMILES | CYP1A2 function in beagle hepatocytes (CYP1A2 [1]; 20 µM) | CYP1A2 function in beagle hepatocytes (CYP1A2 [1]; 50 µM) | beagle hepatic microsomal CYP1A2 isoenzyme activity (CYP1A2 [2]) | cell viability vs control (beagle hepatocytes)
N=C(N)c1cccc(C[C@H](NS(=O)(=O)c2cccc(-c3ccc(Cl)cc3Cl)c2)C(=O)N2CCC(CCN)CC2)c1 [MI-432] | significantly inhibited CYP1A2 function | significantly inhibited CYP1A2 function | reduced the activity of CYP1A2 | –
COc1ccc(-c2cccc(S(=O)(=O)N[C@@H](Cc3cccc(C(=N)N)c3)C(=O)N3CCN(C(=O)NC4CCCCC4)CC3)c2)c(OC)c1 [MI-1900] | – | – | – | No significant differences
